According to patent US4471131A, “Novel silyl esters of N-phosphonomethylglycine” (Monsanto Company, priority 1983, dated 1984):

Tests used:
Experiment in all cases: post-emergence herbicidal activity, greenhouse
Format in all cases: in vivo
Sugar Beet = conditions: Table III, formulated in anhydrous tetrahydrofuran
Excerpt: (§1) A good grade of top soil is placed in aluminum pans having holes in the bottom and compacted to a depth of 0.95 to 1.27 cm. from the top of the pan. A predetermined number of seeds of each of several dicotyledonous and moncotyledonous annual plant species and/or vegetative propagules for the perennial plant species were placed on the soil and pressed into the soil surface. The seeds and/or vegetative propagules are covered with soil and leveled. The pans are then placed on a sand bench in the greenhouse and watered from below as needed. After the plants reach the desired age (two to three weeks), each pan, except for the control pans, is removed individually to a spraying chamber and sprayed by means of an atomizer at the rates noted. In the spray solution is an amount of an emulsifying agent mixture to give a spray solution or suspension which contains about 0.4% by weight of the emulsifier. The spray solution or suspension contains a sufficient amount of the candidate chemical in order to give application rates corresponding to those set forth in the tables. The pans were returned to the greenhouse and watered as before and the injury to the plants as compared to the control is observed at approximately two and four weeks and the results recorded. In the tables, WAT means "weeks after treatment."
(§2) The post-emergent herbicidal activity index used in Tables II and III is as follows:
(§3) The plant species utilized in these tests are identified by letter in accordance with the following legend: […]

Yellow Nutsedge = conditions: Table II
Excerpt: as §1, §2, §3

Pennsylvania Smartweed = test system: Pennsylvania Smartweed
Excerpt: as §1, §2, §3

Rice = conditions: Table III, formulated in anhydrous tetrahydrofuran
Excerpt: as §1, §2, §3

Soybean = conditions: Table III, formulated in anhydrous tetrahydrofuran
Excerpt: as §1, §2, §3

Panicum Spp = conditions: Table III, formulated in anhydrous tetrahydrofuran
Excerpt: as §1, §2, §3

Quackgrass = conditions: Table II
Excerpt: as §1, §2, §3

Velvetleaf = test system: Velvetleaf
Excerpt: as §1, §2, §3

Johnsongrass = conditions: Table II
Excerpt: as §1, §2, §3

Common Lambsquarters = conditions: Table II
Excerpt: as §1, §2, §3

[1] = 2 WAT, 5.6 kg/h, formulated in anhydrous tetrahydrofuran
[2] = 2 WAT, 11.2 kg/h, formulated in anhydrous tetrahydrofuran
[3] = 4 WAT, 11.2 kg/h, formulated in anhydrous tetrahydrofuran
[4] = Table II, 2 WAT, 5.6 kg/h, formulated in anhydrous tetrahydrofuran
[5] = Table II, 2 WAT, 11.2 kg/h, formulated in anhydrous tetrahydrofuran
[6] = Table II, 4 WAT, 11.2 kg/h, formulated in anhydrous tetrahydrofuran
[7] = Table III, 2 WAT, 1.1 kg/h, formulated in anhydrous tetrahydrofuran
[8] = Table III, 2 WAT, 5.6 kg/h, formulated in anhydrous tetrahydrofuran
[9] = Table III, 2 WAT, .28 kg/h, formulated in anhydrous tetrahydrofuran
[10] = Table III, 4 WAT, 5.6 kg/h, formulated in anhydrous tetrahydrofuran

For `CC(C)(C)[Si](OP(=O)(O)CNCC(=O)O)(c1ccccc1)c1ccccc1` [Ex. 5, Glycine, N-((([(1,1-Dimethylethyl)Diphenylsilyl]oxy)-Hydroxyphosphinyl)-Methyl)-,], the “Plant Response Index (M)” value (Sugar Beet; 2 WAT, 1.1 kg/h) was 0 (0-24% inhibition), the “Plant Response Index (M)” value (Sugar Beet; 2 WAT, 5.6 kg/h) was 0 (0-24% inhibition) and the “Plant Response Index (M)” value (Sugar Beet; 2 WAT, .28 kg/h) was 0 (0-24% inhibition). For the same molecule, the “Plant Response Index (M)” value (Sugar Beet; 4 WAT, 5.6 kg/h) was 0 (0-24% inhibition), the “Plant Response Index (G)” value (Yellow Nutsedge; 2 WAT, 5.6 kg/h) was 0 (0-24% inhibition) and the “Plant Response Index (G)” value (Yellow Nutsedge; [1]) was 0 (0-24% inhibition). For the same molecule, the “Plant Response Index (G)” value (Yellow Nutsedge; 2 WAT, 11.2 kg/h) was 1 (25-49% inhibition), the “Plant Response Index (G)” value (Yellow Nutsedge; [2]) was 0 (0-24% inhibition) and the “Plant Response Index (G)” value (Yellow Nutsedge; 4 WAT, 5.6 kg/h) was 1 (25-49% inhibition). The “Plant Response Index (G)” value (Yellow Nutsedge; 4 WAT, 11.2 kg/h) was 2 (50-74% inhibition), the “Plant Response Index (G)” value (Yellow Nutsedge; [3]) was 0 (0-24% inhibition) and the “Plant Response Index (F)” value (Pennsylvania Smartweed; Table II, 2 WAT, 5.6 kg/h) was 0 (0-24% inhibition). For the same molecule, the “Plant Response Index (F)” value (Pennsylvania Smartweed; [4]) was 0 (0-24% inhibition), the “Plant Response Index (F)” value (Pennsylvania Smartweed; Table II, 2 WAT, 11.2 kg/h) was 2 (50-74% inhibition) and the “Plant Response Index (F)” value (Pennsylvania Smartweed; [5]) was 0 (0-24% inhibition). For the same molecule, the “Plant Response Index (F)” value (Pennsylvania Smartweed; Table II, 4 WAT, 5.6 kg/h) was 0 (0-24% inhibition), the “Plant Response Index (F)” value (Pennsylvania Smartweed; Table II, 4 WAT, 11.2 kg/h) was 2 (50-74% inhibition) and the “Plant Response Index (F)” value (Pennsylvania Smartweed; [6]) was 0 (0-24% inhibition). For the same molecule, the “Plant Response Index (F)” value (Pennsylvania Smartweed; [7]) was 0 (0-24% inhibition), the “Plant Response Index (F)” value (Pennsylvania Smartweed; [8]) was 1 (25-49% inhibition) and the “Plant Response Index (F)” value (Pennsylvania Smartweed; [9]) was 0 (0-24% inhibition). For the same molecule, the “Plant Response Index (F)” value (Pennsylvania Smartweed; [10]) was 1 (25-49% inhibition), the “Plant Response Index (O)” value (Rice; 2 WAT, 1.1 kg/h) was 0 (0-24% inhibition) and the “Plant Response Index (O)” value (Rice; 2 WAT, 5.6 kg/h) was 0 (0-24% inhibition). The “Plant Response Index (O)” value (Rice; 2 WAT, .28 kg/h) was 0 (0-24% inhibition), the “Plant Response Index (O)” value (Rice; 4 WAT, 5.6 kg/h) was 0 (0-24% inhibition) and the “Plant Response Index (L)” value (Soybean; 2 WAT, 1.1 kg/h) was 1 (25-49% inhibition). For the same molecule, the “Plant Response Index (L)” value (Soybean; 2 WAT, 5.6 kg/h) was 1 (25-49% inhibition), the “Plant Response Index (L)” value (Soybean; 2 WAT, .28 kg/h) was 1 (25-49% inhibition) and the “Plant Response Index (L)” value (Soybean; 4 WAT, 5.6 kg/h) was 0 (0-24% inhibition). The “Plant Response Index (S)” value (Panicum Spp; 2 WAT, 1.1 kg/h) was 0 (0-24% inhibition), the “Plant Response Index (S)” value (Panicum Spp; 2 WAT, 5.6 kg/h) was 0 (0-24% inhibition) and the “Plant Response Index (S)” value (Panicum Spp; 2 WAT, .28 kg/h) was 0 (0-24% inhibition). For the same molecule, the “Plant Response Index (S)” value (Panicum Spp; 4 WAT, 5.6 kg/h) was 0 (0-24% inhibition), the “Plant Response Index (H)” value (Quackgrass; 2 WAT, 5.6 kg/h) was 0 (0-24% inhibition) and the “Plant Response Index (H)” value (Quackgrass; [1]) was 0 (0-24% inhibition). For the same molecule, the “Plant Response Index (H)” value (Quackgrass; 2 WAT, 11.2 kg/h) was 0 (0-24% inhibition), the “Plant Response Index (H)” value (Quackgrass; [2]) was 0 (0-24% inhibition) and the “Plant Response Index (H)” value (Quackgrass; 4 WAT, 5.6 kg/h) was 0 (0-24% inhibition). The “Plant Response Index (H)” value (Quackgrass; 4 WAT, 11.2 kg/h) was 1 (25-49% inhibition), the “Plant Response Index (H)” value (Quackgrass; [3]) was 0 (0-24% inhibition) and the “Plant Response Index (C)” value (Velvetleaf; Table II, 2 WAT, 5.6 kg/h) was 0 (0-24% inhibition). The “Plant Response Index (C)” value (Velvetleaf; [4]) was 0 (0-24% inhibition), the “Plant Response Index (C)” value (Velvetleaf; Table II, 2 WAT, 11.2 kg/h) was 1 (25-49% inhibition) and the “Plant Response Index (C)” value (Velvetleaf; [5]) was 0 (0-24% inhibition). The “Plant Response Index (C)” value (Velvetleaf; Table II, 4 WAT, 5.6 kg/h) was 0 (0-24% inhibition), the “Plant Response Index (C)” value (Velvetleaf; Table II, 4 WAT, 11.2 kg/h) was 0 (0-24% inhibition) and the “Plant Response Index (C)” value (Velvetleaf; [6]) was 0 (0-24% inhibition). For the same molecule, the “Plant Response Index (C)” value (Velvetleaf; [7]) was 0 (0-24% inhibition), the “Plant Response Index (C)” value (Velvetleaf; [8]) was 0 (0-24% inhibition) and the “Plant Response Index (C)” value (Velvetleaf; [9]) was 0 (0-24% inhibition). The “Plant Response Index (C)” value (Velvetleaf; [10]) was 0 (0-24% inhibition), the “Plant Response Index (I)” value (Johnsongrass; 2 WAT, 5.6 kg/h) was 0 (0-24% inhibition) and the “Plant Response Index (I)” value (Johnsongrass; [1]) was 0 (0-24% inhibition). For the same molecule, the “Plant Response Index (I)” value (Johnsongrass; 2 WAT, 11.2 kg/h) was 1 (25-49% inhibition), the “Plant Response Index (I)” value (Johnsongrass; [2]) was 0 (0-24% inhibition) and the “Plant Response Index (I)” value (Johnsongrass; 4 WAT, 5.6 kg/h) was 1 (25-49% inhibition). For the same molecule, the “Plant Response Index (I)” value (Johnsongrass; 4 WAT, 11.2 kg/h) was 2 (50-74% inhibition), the “Plant Response Index (I)” value (Johnsongrass; [3]) was 0 (0-24% inhibition) and the “Plant Response Index (E)” value (Common Lambsquarters; 2 WAT, 5.6 kg/h) was 1 (25-49% inhibition). For the same molecule, the “Plant Response Index (E)” value (Common Lambsquarters; [1]) was 0 (0-24% inhibition), the “Plant Response Index (E)” value (Common Lambsquarters; 2 WAT, 11.2 kg/h) was 1 (25-49% inhibition) and the “Plant Response Index (E)” value (Common Lambsquarters; [2]) was 0 (0-24% inhibition). For the same molecule, the “Plant Response Index (E)” value (Common Lambsquarters; 4 WAT, 5.6 kg/h) was 0 (0-24% inhibition), the “Plant Response Index (E)” value (Common Lambsquarters; 4 WAT, 11.2 kg/h) was 2 (50-74% inhibition) and the “Plant Response Index (E)” value (Common Lambsquarters; [3]) was 0 (0-24% inhibition).
